Legend:
Rattus norvegicus [1] = organism: Rattus norvegicus; assay: Compound was tested for SKCa blocking action by measuring its ability to inhibit after hyperpolarization (AHP) in cultured rat sympathetic neurones; assay type: functional; settings: Sympathetic neuron
Rattus norvegicus [2] = organism: Rattus norvegicus; assay: The ratio of the conc of compound to dequalinium to cause 50% inhibition of the after hyperpolarization (AHP) in cultured rat sympathetic neurones; assay type: functional, Sympathetic neuron

SMILES	IC50 (Rattus norvegicus [1]) [nM]	EMR (Rattus norvegicus [2])
c1cc2cc(c1)C[n+]1ccc(c3ccccc31)NCc1ccc(cc1)CNc1cc[n+](c3ccccc13)C2	3	0.01
c1ccc2c(c1)c1cc[n+]2Cc2ccc(cc2)Cc2ccc(cc2)C[n+]2ccc(c3ccccc32)NCc2ccc(cc2)Cc2ccc(cc2)CN1	260	0.31
c1ccc2c(c1)c1cc[n+]2Cc2ccc(cc2)-c2ccc(cc2)C[n+]2ccc(c3ccccc32)NCc2ccc(cc2)Cc2ccc(cc2)CN1	150	0.26
c1ccc2c(c1)c1cc[n+]2Cc2ccc(cc2)Cc2ccc(cc2)C[n+]2ccc(c3ccccc32)NCc2ccc(cc2)-c2ccc(cc2)CN1	280	0.8
Cc1cc(N)c2ccccc2[n+]1CCCCCCCCCC[n+]1c(C)cc(N)c2ccccc21.[Cl-].[Cl-] [DEQUALINIUM CHLORIDE]	570	1

Now from value to compound, other results behind:

IC50 (Rattus norvegicus [1]) [nM]	SMILES	EMR (Rattus norvegicus [2])
70	c1cc2cc(c1)CNc1cc[n+](c3ccccc13)Cc1ccc(cc1)C[n+]1ccc(c3ccccc31)NC2	0.18
130	c1cc2cc(c1)CNc1cc[n+](c3ccccc13)Cc1cccc(c1)C[n+]1ccc(c3ccccc31)NC2	0.22
28	c1ccc2c(c1)c1cc[n+]2Cc2ccc(cc2)C[n+]2ccc(c3ccccc32)NCc2ccc(cc2)CN1	0.05

Reference: ChEMBL document CHEMBL1131200, “Bis-quinolinium cyclophanes: 6,10-diaza-3(1,3),8(1,4)-dibenzena-1,5(1,4)- diquinolinacyclodecaphane (UCL 1684), the first nanomolar, non-peptidic blocker of the apamin-sensitive Ca(2+)-activated K+ channel” (J Med Chem, 1998)
